Laboratory results from ChEMBL document CHEMBL1201862, “PubChem BioAssay data set” (2004).
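A five-concentration, 48-hour dose response in 96-well plates underlies each endpoint, interpolated linearly between surrounding concentrations. At the GI50, growth is halved.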 Activity calls are given as the source filed them. Rule as the data show it: active = GI50 up to about 1.1 µM and inactive = higher.

How the values were obtained:
Experiment in all cases: inhibition of tumour cell growth, NCI panel, 48 h
HOP-92 = system: HOP-92
MOLT-4 = system: MOLT-4
A549 = system: A549
M14 = system: M14
A498 = system: A498
SK-MEL-28 = system: SK-MEL-28
NCI-H460 = system: NCI-H460
SW-620 = system: SW-620
HCT-15 = system: HCT-15
U-251 = system: U-251
ACHN = system: ACHN
SN12C = system: SN12C
HCT-116 = system: HCT-116
SR = system: SR
Malme-3M = system: Malme-3M
UO-31 = system: UO-31

Structure (SMILES) | GI50 (HOP-92) | GI50 (MOLT-4) | GI50 (A549) | GI50 (M14) | GI50 (A498) | GI50 (SK-MEL-28) | GI50 (NCI-H460) | GI50 (SW-620) | GI50 (HCT-15) | GI50 (U-251) | GI50 (ACHN) | GI50 (SN12C) | GI50 (HCT-116) | GI50 (SR) | GI50 (Malme-3M) | GI50 (UO-31)
CC(=O)n1ccc2c(Cl)ncnc21 | > 100 µM (inactive) | > 100 µM (inactive) | > 100 µM (inactive) | > 100 µM (inactive) | > 100 µM (inactive) | > 100 µM (inactive) | > 100 µM (inactive) | > 100 µM (inactive) | > 100 µM | > 100 µM (inactive) | > 100 µM (inactive) | > 100 µM (inactive) | > 100 µM (inactive) | > 100 µM (inactive) |  | 
O=c1c2ccccc2c2c3c1cccc3c1cccc3c(=O)c4ccccc4c2c31 | > 100 µM (inactive) | 46.3 µM (inactive) | > 100 µM (inactive) | > 100 µM (inactive) | > 100 µM (inactive) | > 100 µM (inactive) | > 100 µM (inactive) | > 100 µM (inactive) | > 100 µM | > 100 µM (inactive) | > 100 µM (inactive) | > 100 µM (inactive) | > 100 µM (inactive) | > 100 µM (inactive) | > 100 µM (inactive) | > 100 µM (inactive)
O=C(/C=C/c1c(O)ccc2ccccc12)c1ccc([N+](=O)[O-])cc1 | 16.1 µM (inactive) | 43.6 µM (inactive) | > 95.9 µM (inactive) | 19.8 µM (inactive) | > 100 µM (inactive) | 30.1 µM (inactive) | 46.9 µM (inactive) | 25.2 µM (inactive) | 25.2 µM | 46.5 µM (inactive) | 22.1 µM (inactive) | 20 µM (inactive) | 19.3 µM (inactive) | 32.7 µM (inactive) | 22.9 µM (inactive) | > 43 µM (inactive)
COc1c(C)cc2c(c1O)C1NC(C2)[C@H](O)N2C3COC(=O)[C@@]4(CS[C@@H](c5c(OC(C)=O)c(C)c6c(c53)OCO6)C12)NCCC1=C4NC2C=CC=CC12 (some centres undefined) |  | < 0.01 µM (active) | < 0.01 µM (active) | < 0.01 µM (active) | < 0.01 µM (active) | < 0.01 µM (active) | < 0.01 µM (active) | < 0.01 µM (active) | 0.0104 µM | < 0.01 µM (active) | < 0.01 µM (active) | < 0.01 µM (active) | < 0.01 µM (active) | < 0.01 µM (active) | < 0.01 µM (active) | 0.0148 µM (active)
COc1cc2ccnc(C#N)c2cc1OCc1ccccc1 |  | > 100 µM (inactive) | > 100 µM (inactive) | > 100 µM (inactive) | 87.1 µM (inactive) | > 100 µM (inactive) | > 100 µM (inactive) | > 100 µM (inactive) | > 100 µM | 48 µM (inactive) | > 100 µM (inactive) | > 100 µM (inactive) | > 100 µM (inactive) |  | > 100 µM (inactive) | > 100 µM (inactive)
Cc1ccccc1C(=O)N1CCN(C(=O)c2ccccc2C)CC1 | > 100 µM (inactive) | > 100 µM (inactive) | > 100 µM (inactive) | > 100 µM (inactive) | > 100 µM (inactive) | > 100 µM (inactive) | > 100 µM (inactive) | > 100 µM (inactive) | > 100 µM | > 100 µM (inactive) | > 100 µM (inactive) | > 100 µM (inactive) | > 100 µM (inactive) | > 100 µM (inactive) |  | > 100 µM (inactive)
CC[P+](C)(Cc1ccccc1)c1ccccc1.O=C(OC(C(=O)[O-])C(OC(=O)c1ccccc1)C(=O)O)c1ccccc1 (centres undefined) |  |  | > 100 µM (inactive) | > 100 µM (inactive) |  | > 100 µM (inactive) |  |  | > 100 µM | > 100 µM (inactive) |  | > 100 µM (inactive) |  |  | > 100 µM (inactive) | > 100 µM (inactive)
O=C(c1ccccc1)c1nc2c(Cl)ccc(Cl)c2cc1C(Br)Br |  | 1.36 µM (inactive) | 3.08 µM (inactive) | 1.4 µM (inactive) |  | 0.215 µM (active) |  | 0.308 µM (active) | 0.69 µM | 1.11 µM (active) | 0.243 µM (active) | 1.17 µM (inactive) | 0.375 µM (active) | 1.59 µM (inactive) | 2.19 µM (inactive) | 1.29 µM (inactive)
O=C1C2=C(c3ccccc31)C(c1ccc(F)cc1)N1C(=O)CCSC1=N2 (centres undefined) | 24.7 µM (inactive) | 64.6 µM (inactive) | > 100 µM (inactive) | > 100 µM (inactive) | > 100 µM (inactive) | > 100 µM (inactive) | > 100 µM (inactive) | > 100 µM (inactive) | 98.4 µM | > 100 µM (inactive) | > 100 µM (inactive) | 42.9 µM (inactive) | 95.7 µM (inactive) |  | > 100 µM (inactive) | 39.9 µM (inactive)
CC/C=C1\N=C(c2ccc(Cl)cc2)OC1=O | > 100 µM (inactive) | > 100 µM (inactive) | > 100 µM (inactive) | > 100 µM (inactive) | > 100 µM (inactive) | > 100 µM (inactive) | > 100 µM (inactive) | > 100 µM (inactive) | > 100 µM |  | > 100 µM (inactive) | > 100 µM (inactive) |  |  | > 100 µM (inactive) | > 100 µM (inactive)
